What was measured:
[1] = molecular target: T1, Kappa-type opioid receptor (Homo sapiens, UniProt P41145); design: species or system Cricetulus griseus
Description: Inhibition of [3H]U-69593 binding to Opioid receptor kappa 1 of Chinese hamster ovary membrane

[2] = molecular target: Delta-type opioid receptor (Homo sapiens, UniProt P41143); test: Inhibition of [3H]naltrindole binding to opioid receptor delta 1 of Chinese hamster ovary membrane; design: species or system Cricetulus griseus
[3] = molecular target: T1, Kappa-type opioid receptor; test: Agonistic activity against kappa opioid receptor in Chinese hamster ovary membranes; assay type: functional, cell membranes, Cricetulus griseus
[4] = molecular target: T1, Kappa-type opioid receptor; test: Binding ability against kappa opioid receptor by stimulating the [35S]GTP-gamma-S, radioligand in Chinese hamster ovary membranes; assay type: functional, cell membranes; conditions: Cricetulus griseus
[5] = molecular target: T2, Mu-type opioid receptor (Homo sapiens, UniProt P35372); design: species or system Cricetulus griseus
T2 sequence (P35372 whole entry): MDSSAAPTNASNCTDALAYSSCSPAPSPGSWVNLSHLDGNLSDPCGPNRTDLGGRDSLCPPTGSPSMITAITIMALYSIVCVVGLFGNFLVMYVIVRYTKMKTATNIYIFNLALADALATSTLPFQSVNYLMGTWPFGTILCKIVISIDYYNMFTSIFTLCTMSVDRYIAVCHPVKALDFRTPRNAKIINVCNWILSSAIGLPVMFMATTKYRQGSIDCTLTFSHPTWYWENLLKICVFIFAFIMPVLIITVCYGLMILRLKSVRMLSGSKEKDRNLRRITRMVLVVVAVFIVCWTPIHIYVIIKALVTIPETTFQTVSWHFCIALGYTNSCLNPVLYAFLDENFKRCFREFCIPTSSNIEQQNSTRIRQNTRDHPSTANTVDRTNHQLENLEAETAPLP
Description: Inhibition of [3H]-DAMGO binding to Opioid receptor mu 1 of Chinese hamster ovary membrane

[6] = molecular target: T2, Mu-type opioid receptor
Description: Agonistic activity against Opioid receptor mu 1 in Chinese hamster ovary membranes

T1 sequence (P41145 whole entry): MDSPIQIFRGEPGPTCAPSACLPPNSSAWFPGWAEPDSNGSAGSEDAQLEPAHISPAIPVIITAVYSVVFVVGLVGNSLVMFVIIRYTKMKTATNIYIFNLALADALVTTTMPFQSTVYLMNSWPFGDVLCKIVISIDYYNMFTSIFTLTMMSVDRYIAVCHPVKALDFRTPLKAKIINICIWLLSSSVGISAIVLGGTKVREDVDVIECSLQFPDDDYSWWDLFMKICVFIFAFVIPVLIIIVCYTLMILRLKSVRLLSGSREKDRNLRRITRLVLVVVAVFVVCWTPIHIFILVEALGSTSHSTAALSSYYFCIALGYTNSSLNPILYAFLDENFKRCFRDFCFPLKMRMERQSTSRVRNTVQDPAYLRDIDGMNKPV
Sequence of Delta-type opioid receptor (P41143 whole entry): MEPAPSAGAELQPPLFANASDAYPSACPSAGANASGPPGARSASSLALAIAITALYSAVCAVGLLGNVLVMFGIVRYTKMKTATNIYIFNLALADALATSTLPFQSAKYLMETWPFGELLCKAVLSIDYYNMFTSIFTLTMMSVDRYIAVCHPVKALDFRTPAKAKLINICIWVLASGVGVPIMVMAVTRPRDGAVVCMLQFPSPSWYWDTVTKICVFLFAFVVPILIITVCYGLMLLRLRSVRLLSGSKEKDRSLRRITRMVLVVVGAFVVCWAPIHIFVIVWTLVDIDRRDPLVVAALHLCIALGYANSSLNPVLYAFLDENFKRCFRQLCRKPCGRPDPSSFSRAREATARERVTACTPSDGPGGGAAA

SMILES | Ki [1] | Ki [2] | EC50 [3] | Emax [4] | Ki [5] | EC50 [6]
C[C@H]1C2Cc3ccc(O)cc3[C@]1(C)CCN2CC1CC1 | 0.18 nM | 1.1 nM |  |  |  | 
Nc1nc2cc3c(cc2s1)C[C@@H]1[C@@H]2CCCC[C@]32CCN1CC1CCC1 |  |  | 29 nM | 80% |  | 
C[C@H]1[C@H]2Cc3cc4sc(N)nc4cc3[C@]1(C)CCN2CC1CC1 | 6.7 nM | 940 nM |  |  | 48 nM | 
Nc1nc2cc3c(cc2s1)C[C@@H]1[C@@H]2CCCC[C@]32CCN1CC1CC1 |  |  | 2.4 nM | 80% |  | 73 nM
CN1CC[C@]23CCCC[C@H]2[C@H]1Cc1cc2sc(N)nc2cc13 (stereo in doubt; 4) | 6.4 nM | 190 nM |  |  | 1.1 nM | 
C[C@H]1[C@H]2Cc3cc4sc(N)nc4cc3[C@]1(C)CCN2CC1CCC1 | 0.49 nM | 93 nM |  |  | 8.3 nM | 
CN1CC[C@]23c4c5cc6sc(N)nc6c4O[C@H]2[C@@H](O)CCC3[C@H]1C5 (some centres not stated) | 220 nM | 32 nM |  |  | 30 nM | 
Nc1nc2cc3c(cc2s1)C(=O)[C@@H]1C2CCCC[C@]32CCN1CC1CCC1 (some centres not stated) | 13 nM | > 10000 nM |  |  | 200 nM | 

Source: ChEMBL document CHEMBL1149134, “2-aminothiazole-derived opioids. Bioisosteric replacement of phenols” (J Med Chem, 2004)
